Series [1] can be described thus: Formation of PGE2 in A-23187-stimulated human polymorphonuclear leukocytes at 1000 uM relative to control. It is filed as functional.
Series [2] can be described thus: Formation of 15HETE in A-23187-stimulated human polymorphonuclear leukocytes at 1000 uM relative to control. It is filed as functional.
Series [3] is filed under the species Homo sapiens. Description: Inhibition of A23187-induced 5HETE formation in human polymorphonuclear leukocytes at 100 to 1000 uM. It is filed as functional, cell-based.
Series [4] is described as follows: Formation of PGE2 in A-23187-stimulated human polymorphonuclear leukocytes at 100 uM relative to control. Type of series: functional.
Series [5] is described as follows: Inhibition of A23187-induced 5HETE formation in human polymorphonuclear leukocytes. It is filed as functional, cell-based.
Series [6] in a line: Inhibition of A23187-induced LTB4 formation in human polymorphonuclear leukocytes. Type of series: functional, cell-based.
The nature of series [7]: Cytotoxicity against human polymorphonuclear leukocytes assessed as occurrence of cell suspension or lactate dehydrogenase release at 1 to 1000 uM.
For series [8], the species on record is Homo sapiens. In words: Enhancement of PGE2 formation in A-23187-stimulated human polymorphonuclear leukocytes at 100 uM. Type of series: functional.
Series [9] is filed under the species Homo sapiens. In words: Inhibition of A23187-induced LTB4 formation in human polymorphonuclear leukocytes at 100 to 1000 uM. It is filed as functional, cell-based.
Series [10] in a line: Formation of PGE2 in A-23187-stimulated human polymorphonuclear leukocytes at 10 uM relative to control. It is filed as functional.
Series [11] is described as follows: Inhibition of A23187-induced 12-hydroxy-5,8,10-heptadecatrienoic acid formation in human polymorphonuclear leukocytes. Type of series: functional, cell-based.
The nature of series [12]: Formation of 15HETE in A-23187-stimulated human polymorphonuclear leukocytes at 100 uM relative to control. It is filed as functional.
The species named for series [13] is Homo sapiens. Description: Inhibition of A23187-induced 12-hydroxy-5,8,10-heptadecatrienoic acid formation in human polymorphonuclear leukocytes at 1 to 100 uM. Type of series: functional, cell-based.
Series [14] is filed under the species Homo sapiens. Description: Inhibition of A23187-induced PGE2 formation in human polymorphonuclear leukocytes at 1 to 100 uM. It is filed as functional, cell-based.
The species entered for series [15] is Homo sapiens. Description: Enhancement of PGE2 formation in A-23187-stimulated human polymorphonuclear leukocytes at 100 to 1000 uM. It is filed as functional.
For series [16], the species on record is Homo sapiens. In words: Inhibition of A23187-induced 12-hydroxy-5,8,10-heptadecatrienoic acid formation in human polymorphonuclear leukocytes at 1000 uM. It is filed as functional, cell-based.
The species named for series [17] is Homo sapiens. Description: Inhibition of A23187-induced 5HETE formation in human polymorphonuclear leukocytes at 1 to 1000 uM. It is filed as functional, cell-based.
For series [18], the species on record is Homo sapiens. Description: Enhancement of 15HETE formation in A-23187-stimulated human polymorphonuclear leukocytes at 10 to 100 uM. Type of series: functional.
The species named for series [19] is Homo sapiens. In words: Enhancement of PGE2 formation in A-23187-stimulated human polymorphonuclear leukocytes at 10 to 100 uM. Type of series: functional.
The nature of series [20]: Formation of 15HETE in A-23187-stimulated human polymorphonuclear leukocytes at 10 uM relative to control. Type of series: functional.
A short description of series [21]: Formation of 12-hydroxy-5,8,10-heptadecatrienoic acid in A-23187-stimulated human polymorphonuclear leukocytes at 1000 uM relative to control. Type of series: functional.
A short description of series [22]: Inhibition of A23187-induced 15HETE formation in human polymorphonuclear leukocytes. Type of series: functional, cell-based.
Series [23] is filed under the species Homo sapiens. Description: Inhibition of A23187-induced 15HETE formation in human polymorphonuclear leukocytes at 100 to 1000 uM. It is filed as functional, cell-based.
For series [24], the species on record is Homo sapiens. In words: Inhibition of A23187-induced 12-hydroxy-5,8,10-heptadecatrienoic acid formation in human polymorphonuclear leukocytes at 100 to 1000 uM. Type of series: functional, cell-based.

Active and inactive are the calls of the source. The rule behind the calls is not given here.

In the case of `O=C(/C=C/c1ccc(O)c(O)c1)O[C@H]1[C@H](O)C[C@](O)(C(=O)O)C[C@H]1OC(=O)/C=C/c1ccc(O)c(O)c1`, the Activity in [1] is 79.5%; in series [2], 56.9%; in [4], 155%; in series [7] it was “Non-toxic”; in [10] it was 126%. The inhibition result in the series listed under Homo sapiens [3] and in the series filed under Homo sapiens [9] was “Active” in each case. In addition, the 50% inhibitory concentration (IC50) was 601 µM in series [5] (Homo sapiens, read-out: IC50); 443 µM in [6] (Homo sapiens, read-out: IC50); 740 µM in series [11]. For the same compound, the result in the series listed under Homo sapiens [8] was Active.

With `O=C(/C=C/c1ccc(O)c(O)c1)O[C@@H]1C[C@](O)(C(=O)O)C[C@@H](OC(=O)/C=C/c2ccc(O)c(O)c2)[C@H]1O`, the Activity in [12] is on record as 121.1%; in [1], 97.5%; in series [2] it was 50.9%; in series [4], 160.8%; in series [7], “Non-toxic”. Also, the inhibition entry in the series filed under Homo sapiens [3] and in the series listed under Homo sapiens [9] was “Active” each time. For the same compound, the IC50 in series [5] (Homo sapiens, read-out: IC50) was found to be 666 µM; in [6] (Homo sapiens, read-out: IC50), 85.9 µM; in [11] it was 902 µM. Moreover, in the series listed under Homo sapiens [8], the result was Active.

As for `O=C(/C=C/c1ccc(O)c(O)c1)O[C@@H]1[C@H](O)C[C@@](O)(C(=O)O)C[C@H]1OC(=O)/C=C/c1ccc(O)c(O)c1`, the inhibition entry in the series listed under Homo sapiens [3] and in the series filed under Homo sapiens [9] was “Active” throughout. For the same compound, the IC50 was 749 µM in series [5] (Homo sapiens, read-out: IC50); 92.5 µM in series [6] (Homo sapiens, read-out: IC50); 80 µM in series [11]. Moreover, the Activity entry in series [7] is given as “Non-toxic”. Besides, in the series filed under Homo sapiens [8], the result was Active.

`COc1ccc2c(c1)c(CC(=O)O)c(C)n2C(=O)c1ccc(Cl)cc1`: the inhibition entry in the series filed under Homo sapiens [13] and in the series filed under Homo sapiens [14] was “Active” throughout.

Take `O=C(O)/C=C/c1ccc(O)c(O)c1` [CAFFEIC ACID]: the Activity in series [12] was 153.7%; in series [2], 96.5%; in [7], “Non-toxic”; in series [20] it was 136.7%. The outcome in the series listed under Homo sapiens [15], in the series listed under Homo sapiens [18] and in the series listed under Homo sapiens [19] was Active. In addition, the 50% inhibitory concentration (IC50) in [5] (Homo sapiens, read-out: IC50) was 276 µM; in series [6], “Dose-dependent effect”; in [6] (Homo sapiens, read-out: IC50), 411 µM. For the same compound, the inhibition result in the series listed under Homo sapiens [16] and in the series filed under Homo sapiens [17] was “Active” throughout.

With `O=C(O)CC(OC(=O)/C=C/c1ccc(O)c(O)c1)C(=O)O` (centres undefined) [CAFFEOYLMALIC ACID], the Activity in [12] is 141.5%; in [2], 114.8%; in [7] it was “Non-toxic”; in [20], 106.3%. The inhibition result in the series listed under Homo sapiens [3] and in the series filed under Homo sapiens [9] was “Active” throughout. Further, in the series listed under Homo sapiens [15], the outcome was Active. For the same compound, the IC50 was 918 µM in series [5] (Homo sapiens, read-out: IC50); 548 µM in series [6] (Homo sapiens, read-out: IC50); 796 µM in [11].

On to `O=C(/C=C/c1ccc(O)c(O)c1)OC(C(=O)O)C(O)C(=O)O` (centres undefined) [CAFFEOYLTARTARIC ACID], for which the Activity is recorded as 57.9% in series [21], 55% in [2] and “Non-toxic” in series [7]. Moreover, the inhibition entry in the series filed under Homo sapiens [3] and in the series listed under Homo sapiens [9] was “Active” in each case. In addition, the outcome in the series listed under Homo sapiens [15] was Active. In addition, the 50% inhibitory concentration (IC50) in series [5] (Homo sapiens, read-out: IC50) is 873 µM; in series [6] (Homo sapiens, read-out: IC50) it was 433 µM.

For the compound `O=C(/C=C/c1ccc(O)c(O)c1)O[C@@H]1C[C@](O)(C(=O)O)C[C@@H](O)[C@H]1O` [CHLOROGENIC ACID], in [7], the Activity result is on record as “Non-toxic”.

With `O=C(/C=C/c1ccc(O)c(O)c1)O[C@H](Cc1ccc(O)c(O)c1)C(=O)O` [ROSMARINIC ACID], the IC50 in series [22] is 455 µM; in series [5], “Dose-dependent effect”; in [5] (Homo sapiens, read-out: IC50) it was 214 µM; in series [6] it was “Dose-dependent effect”; in series [6] (Homo sapiens, read-out: IC50), 55.6 µM; in [11] it was 459 µM. Further, the Activity in series [1] is recorded as 48%; in series [7], “Non-toxic”; in series [10], 143.4%. For the same compound, in the series filed under Homo sapiens [8], the result was Active. For the same compound, the inhibition result in the series listed under Homo sapiens [23] and in the series listed under Homo sapiens [24] was “Active” in each case.

A word on the IC50: it is the concentration at which inhibition is half-maximal.

(Values after ChEMBL document CHEMBL1150175, “Studies on the activities of tannins and related compounds, X. Effects of caffeetannins and related compounds on arachidonate metabolism in human polymorphonuclear leukocytes” (J Nat Prod, 1987).)
